This note sets out measurements from patent publication US20190256499A1, “SUBSTITUTED QUINOXALINE DERIVATIVES AS INHIBITORS OF PFKFB” (priority 2016, published 2019).

The structures appear in SMILES notation. ≈ marks a conversion by molar mass, not a printed value.

Data set [1] in a line: Microsomal stability (intrinsic clearance), human liver microsomes. Conditions: human, liver microsomes, pH 7.4, human liver microsomes. On the set-up: microsomal CLint: dose or concentration left out as unconfirmed. In kind it is in vitro ADME. An excerpt:
(§1) A microsomal stability assay is used to measure in vitro clearance (Clint). The assay involves measuring the rate of disappearance of a compound due to its intrinsic attitude to be metabolized (“intrinsic” meaning that the disappearance is not affected by other properties like permeability, binding etc. that play a role when quantifying in vivo clearance). The microsomal stability (intrinsic clearance, Clint) and thus metabolic stability is generally given as μl/min/mg protein. It can be visualized as the volume of solution that 1 mg of microsomes is able to clear of the compound in one minute.
(§2) A Tecan Genesis workstation (RSP 150/8) was used for to perform the microsomal incubations. Analysis was carried out using a Waters ACQUITY UPLC system coupled to an ABSciex API3000 mass spectrometer. Data analysis was performed using Assay Explorer (Symyx).
(§3) Mobile phases: A=0.1% formic acid in water; B=acetonitrile
(§4) Flow rate: 0.750 mL/min; Detection: ESI, MRM; Injection: 10 μL; Column temperature: 50° C.
(§5) Potassium phosphate buffer: 0.05 M potassium phosphate buffer pH 7.4 containing 1 mM MgCl2 NADPH (nicotinamide adenine dinucleotide phosphate): 22.5 mg NADPH-Na4 in 1.8 ml potassium phosphate buffer Acetonitrile: 50 Vol % acetonitrile (1 volume acetonitrile, 1 volume water) DMSO: 20 Vol % DMSO in water Stock solution of 20 mg/ml human or mouse liver microsomes (protein)/ml in phosphate buffer Stock solution of 10 mM compound in 100% DMSO
Background: Microsomes from liver hold many membrane-bound enzymes, among them those of drug oxidation.

Data set [2] in a line: Solubility PBS (thermodynamic solubility, shake flask method). In kind it is physicochemical. Conditions: phosphate buffer (PBS), aqueous buffer, thermodynamic from solid, PBS pH 7.4, 24 hours at 37° C. The protocol: The method involves dissolving the test compound in a solvent at a constant temperature followed by HPLC determination of the concentration of the solute in the solution, which must not contain any undissolved particles.
Phosphate Buffer pH 7.4 is prepared by using 50 mL monobasic potassium phosphate solution 0.2 M in a 200-mL volumetric flask and adding 39.1 mL of sodium hydroxide solution 0.2 M and then adding water to volume.
Standard solution is prepared by weighing in a standard compound (about 1 mg) into a flask and dissolved completely in a solution of acetonitrile/methanol (1:1; V/V).
The sample of the test compound (about 2-3 mg) is weighed into a Uniprep® syringeless filter (5 mL; 0.45 μm), the 2 mL of solvent is added and the mixture is agitated for 24 hours at 37° C. The suspension is filtered after 24 hours and the concentration of dissolved substance is determined by HPLC. The result is stated as >x μg/mL, calculated from the sample weight taken and the volume of solvent used
Eluent A: Ultrapure water/Formic acid GR for analysis (999:1, V/V) Eluent B: Acetonitrile/Formic acid GR for analysis (999:1, V/V)
The result is determined quantitatively based on the external standard method through integration of the peak areas with reference to the figures obtained for the standard substance.
L[μg/mL]=a(A)*c(S)*F(A)/a(S)*F(S) Calculation: • a (A)=peak area for analyte/mL • a (S)=peak area for standard/mL • c (S)=concentration of standard (μg/mL) • F (A)=dilution factor for analyte • F (S)=dilution factor for standard

A short description of data set [3]: Microsomal stability (intrinsic clearance), mouse liver microsomes. On the set-up: microsomal CLint: dose or concentration left out as unconfirmed. The data set is classed as in vitro ADME. Conditions: mouse, liver microsomes, pH 7.4, mouse liver microsomes.
From the text: as §1, §2, §3, §4, §5

A further data set in a line: Kinetic solubility. Conditions: phosphate buffer, pH 7.4, aqueous buffer, kinetic from dmso stock, phosphate buffer 20 mM pH 7.4, 2% DMSO, room temperature. In kind it is physicochemical. As for the experimental part: Kinetic solubility of compounds of the present invention were tested according the following procedure.
(a) Buffer Solution Phosphate Buffer 20 mM pH 7.4 is prepared using Sorensen Phosphate Buffer 0.2 M pH 7.4 (EMS) in a 1000 mL volumetric flask (b) 2% DMSO in Phosphate Buffer 20 mM pH 7.4 is prepared by using 1 mL Dimethylsulfoxide (Merck) and 49 ml Sorensen Phosphate Buffer 20 mM pH 7.4 (c) Acetonitrile/Methanole/Eluent A (1:1:2; v/v/v) is prepared by using 50 mL Acetonitrile (Merck), 50 mL Methanol (Merck) and 100 mL Eluent A (d) Eluent A is prepared by using 1 mL Formic Acid (Merck) and 999 mL Ultrapure water (e) Eluent B is prepared by using 1 mL Formic Acid (Merck) and 999 mL Acetonitrile (Merck) (f) Filtration plate: Millipore MultiScreen HTS HV (0.45 μm) 96 Well (Millipore)
98 μL buffer solution (a) is added into a well of a 96 well filtration plate (f). Then 2 μL of 10 mM test compound solution in DMSO (Remp tube) is added. The filtration plate is incubated at room temperature for 120 minutes while agitating at 250 rpm and centrifuged with the PP-Plate (g) as receiver plate below (2500 rpm, 3 min). The 50 μL of filtrate is taken from the receiver plate and mixed with 50 μL of 2% DMSO in buffer pH 7.4 solution (b) (dilution factor=2) in a HPLC Vial (i)+(j).
Standard is prepared by diluting 2 μL of the same 10 mM test compound solution (Remp tube) diluted with 198 μL Acetonitrile/Methanole/Eluent A (1:1:2; v/v/v) (c) to prepare a 100 μM standard solution in a HPLC Vial (i)+(j).
Column temperature: 37° C. Autosampler: room temperature (approx. 25° C.) Gradient programme: […]
Injection volume: 10 μL Wavelength: Suitable wavelength (maximum sensitivity) selected out of wavelength range of 190-400 nm using a DAD detector.
L [μg/mL]=(area sample*concentration standard*dilution factor sample)/(area standard*dilution factor standard)
S [mol/L]=[…] Calculation: […]

What is called microsomal CLint is a measure of how fast metabolising enzymes remove a compound, apart from limits set by blood flow. Usually solubility stands for the concentration that dissolves in the medium under given conditions. The term solubility (kinetic) denotes solubility judged after dilution from a stock solution rather than from solid. As to `Cn1ccc2ccc(-c3cc(NC(c4cccnc4)c4ccc(=O)[nH]n4)cc4nccnc34)cc21` (single isomer, unassigned) [Example 2], the microsomal CLint in data set [1] was 78 µL/min/mg; in data set [3] it was 101 µL/min/mg. This compound also returned a solubility at 24 h in data set [2] of 10 µg/mL (≈ 21.8 µM). In “Kinetic solubility”, this compound yielded a solubility (kinetic) at 120 min of 61 µM (≈ 28 µg/mL).

Consider `COc1ccc([C@@H](Nc2cc(-c3ccc4ccn(C)c4c3)c3nccnc3c2)c2cccnc2)nn1` (single isomer, unassigned) [Example 5], for which the microsomal CLint in data set [1] was 264 µL/min/mg; in data set [3], 154 µL/min/mg. The same compound yielded a solubility at 24 h in data set [2] of 4 µg/mL (≈ 8.45 µM). In “Kinetic solubility”, this compound yielded a kinetic solubility at 120 min of 20 µM (≈ 9.47 µg/mL).

For `Cn1cc([C@H](Nc2cc(-c3ccc4ccn(C)c4c3)c3nccnc3c2)c2cnnn2C)cn1` (single isomer, unassigned) [Example 8], the microsomal CLint in data set [1] is 50 µL/min/mg; in data set [3], 29 µL/min/mg. This compound had a solubility at 24 h in data set [2] of 80 µg/mL (≈ 178 µM). In addition, the solubility (kinetic) at 120 min in “Kinetic solubility” was determined as 110 µM (≈ 49.4 µg/mL).

Consider `Cn1cc([C@H](Nc2cc(-c3ccc4ccn(C)c4c3)c3nccnc3c2)c2cncn2C)cn1` (single isomer, unassigned) [Example 11], for which the microsomal CLint in data set [1] was 130 µL/min/mg; in data set [3], 105 µL/min/mg. The same compound had a solubility at 24 h in data set [2] of 4 µg/mL (≈ 8.92 µM). This compound came in with a kinetic solubility at 120 min in “Kinetic solubility” of 100 µM (≈ 44.9 µg/mL).

For the compound `COc1ccc([C@@H](Nc2cc(-c3ccc4ccn(C)c4c3)c3nccnc3c2)c2cccnc2)cn1` [Comparative Example 4, [(S)-(6-methoxy-pyridin-3-yl)-pyridin-3-yl-methyl]-[8-(1-methyl-1H-indol-6-yl)-quinoxalin-6-yl]-amine, reference compound], the microsomal CLint in data set [1] is 214 µL/min/mg; in data set [3], 291 µL/min/mg. Further, in data set [2], the solubility at 24 h stood at 1 µg/mL (≈ 2.12 µM). This compound yielded a solubility (kinetic) at 120 min in “Kinetic solubility” of 3.7 µM (≈ 1.75 µg/mL).
